Consider five substances from publication PMC6481723, “Fibroblast migration correlates with matrix softness. A study in knob-hole engineered fibrin” (APL Bioengineering, 2018).

Where two headings read alike, the source gives them in different places. Ends that are not written are not given here.

Assay [1] has as its target T1, fibrinogen (Bos taurus, UniProt P02672+P02676+P12799).
T1 sequence (P12799 25-444): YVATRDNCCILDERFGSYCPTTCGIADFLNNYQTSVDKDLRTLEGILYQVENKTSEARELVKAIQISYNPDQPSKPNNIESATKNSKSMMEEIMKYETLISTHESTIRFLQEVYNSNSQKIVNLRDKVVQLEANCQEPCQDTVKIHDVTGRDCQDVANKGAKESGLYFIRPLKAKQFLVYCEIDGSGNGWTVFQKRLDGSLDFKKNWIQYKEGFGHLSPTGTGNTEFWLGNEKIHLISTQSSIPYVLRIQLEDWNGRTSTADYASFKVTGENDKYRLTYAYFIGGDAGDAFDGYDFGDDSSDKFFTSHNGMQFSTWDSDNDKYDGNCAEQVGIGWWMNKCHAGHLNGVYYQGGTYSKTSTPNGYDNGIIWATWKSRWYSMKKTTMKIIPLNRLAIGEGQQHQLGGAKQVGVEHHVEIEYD
T1 sequence (P02676 1-468): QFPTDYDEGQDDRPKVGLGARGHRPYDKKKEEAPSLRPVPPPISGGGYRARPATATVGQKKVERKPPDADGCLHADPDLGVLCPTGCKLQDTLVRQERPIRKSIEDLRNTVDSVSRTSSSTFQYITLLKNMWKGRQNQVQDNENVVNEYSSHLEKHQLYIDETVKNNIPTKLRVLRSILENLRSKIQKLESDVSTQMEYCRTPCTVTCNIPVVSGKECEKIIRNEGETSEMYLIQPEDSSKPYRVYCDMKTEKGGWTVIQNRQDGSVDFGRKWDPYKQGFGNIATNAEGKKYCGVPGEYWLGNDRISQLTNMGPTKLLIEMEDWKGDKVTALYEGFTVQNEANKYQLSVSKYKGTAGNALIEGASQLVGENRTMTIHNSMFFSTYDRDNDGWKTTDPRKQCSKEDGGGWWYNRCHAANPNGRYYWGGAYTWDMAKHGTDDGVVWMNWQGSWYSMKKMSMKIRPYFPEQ
T1 sequence (P02672 20-615 partner): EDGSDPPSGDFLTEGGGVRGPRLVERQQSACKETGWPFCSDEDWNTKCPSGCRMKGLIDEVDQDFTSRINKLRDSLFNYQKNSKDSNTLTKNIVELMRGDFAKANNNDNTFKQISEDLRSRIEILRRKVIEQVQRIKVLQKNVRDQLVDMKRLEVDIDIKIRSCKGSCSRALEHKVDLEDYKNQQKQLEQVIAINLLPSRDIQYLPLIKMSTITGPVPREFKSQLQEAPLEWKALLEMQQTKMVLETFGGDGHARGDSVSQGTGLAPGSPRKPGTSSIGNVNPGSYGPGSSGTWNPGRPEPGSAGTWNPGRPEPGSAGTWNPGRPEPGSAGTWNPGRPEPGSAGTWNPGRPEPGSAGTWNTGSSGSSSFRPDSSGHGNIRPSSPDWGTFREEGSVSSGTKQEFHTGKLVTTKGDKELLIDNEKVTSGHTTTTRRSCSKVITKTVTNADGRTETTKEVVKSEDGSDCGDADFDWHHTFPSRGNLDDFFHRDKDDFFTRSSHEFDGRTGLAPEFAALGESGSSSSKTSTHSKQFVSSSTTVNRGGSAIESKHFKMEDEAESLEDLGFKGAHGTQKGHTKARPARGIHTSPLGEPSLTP
Briefly: Fluorescence anisotropy (FA) saturation experiments with fluorescein-labelled peptides. It counts as binding. Conditions: 5IAF-labelled peptide 25-30 μM, fibrinogen 50 nM-103 μM, HBS, 1 h room temperature; Hill model; n = 3. On the procedure: (§1) Two techniques were used to confirm that PEG-peptides retained the ability to bind to fibrinogen (Fig. 1 and Table I, right): Fluorescence Anisotropy (FA) and Isothermal Titration Calorimetry (ITC). In FA measurements [Fig. 1(a)], the dissociation constant (Kd) was determined via saturation experiments for the non-conjugated peptides, and via competition experiments for the PEG-peptides. In the first case, saturation was achieved by adding increasing amounts of fibrinogen to a given amount of fluorescein-labelled peptides. In competition experiments, fibrinogen was pre-complexed with fluorescein-labelled peptides; these low molecular weight fluorophores were displaced upon addition of non-labelled conjugates, with a corresponding decrease in the polarization of the emitted light (smaller tumbling time).
Equal volumes (100 μl) of a labelled peptide solution (5IAF-pep1, 5IAF-pep2, or 5IAF-pep3) in HEPES (4-(2-hydroxyethyl)-1-piperazineethanesulfonic acid)-buffered saline (HBS) and of a fibrinogen solution were mixed together by gentle pipetting into a 96-well plate to obtain final concentrations of fibrinogen ranging from 50 nM to 103 μM, and a constant peptide concentration, i.e., 26 μM for 5IAF-pep1, 25 μM for 5IAF-pep2, or 30 μM for 5IAF-pep3. […] All mixed reagents were incubated for 1 h at room temperature before recording fluorescence polarization values.
For orientation: In fluorescence polarisation assays a small probe gives low polarisation when free and higher when bound to something large.

Another assay addresses T2, bovine fibrinogen (Bos taurus, UniProt P02672+P02676+P12799).
T2 sequence (P12799 25-444): T1 sequence (P12799 25-444)
T2 sequence (P02676 1-468): T1 sequence (P02676 1-468)
T2 sequence (P02672 20-615 partner): T1 sequence (P02672 20-615 partner)
Briefly: Isothermal titration calorimetry (ITC) binding to fibrinogen. Conditions: ITC in HBS; peptides 5.7-5.9 mM titrated into 0.175 mM fibrinogen; PEG-pep1 1.7 mM or PEG-pep2 5.2 mM into 0.012 mM fibrinogen; n = 3 independent samples. The procedure: as §1
The sample cell for this study can contain up to 270 μl of liquid. Fibrinogen/peptide samples were prepared adding 2 μl aliquots of peptide solution (5.91, 5.92, and 5.73 mM for Pep1, Pep2, and Pep3, respectively) under continuous stirring to 200 μl of 0.175 mM of bovine fibrinogen solution. Fibrinogen/PEG-peptide complexes were prepared adding 2 μl of 1.7 mM of PEG-pep1 or 5.2 mM of PEG-pep2 to 200 μl of 0.012 mM of bovine fibrinogen solution. Note that fibrinogen was prepared as follow: 60 mg of fibrinogen were dissolved in 1 mL HBS for 2 h at 37 °C and then dialyzed (Float-A-Lyzer G2 MWCO: 0.5–1 kDa, Spectrum, Inc.) against HBS for 24 h.
For orientation: Isothermal titration calorimetry measures the heat released or taken up as one component is titrated into another.

The next assay deals with fibrin clotting. Conditions: cited from earlier work.
For assay [2], the target named is T1, fibrinogen. Briefly: Fluorescence anisotropy (FA) competition experiments (displacement of 5IAF-peptides from fibrinogen). The format is binding. Conditions: 36 μM fibrinogen pre-complexed with 5IAF-pep1 (0.25 μM) or 5IAF-pep2 (0.8 μM), displaced by PEG-peptide, 1 h 37 °C, HBS; n = 3. On the procedure: as §1
Fibrinogen/5IAF-pep1 or 5IAF-pep2 complexes were prepared as described in the saturation experiments using 50 μl initial volumes and keeping the fibrinogen concentration fixed. Solutions were pre-incubated for 1 h at room temperature before 50 μl of PEG-peptide 1 or 2 solutions in HBS was added into the wells to obtain a final volume of 150 μl per well. Final concentrations were 36 μM fibrinogen; 0.25 μM 5IAF-pep1 and 0.6 μM to 1.2 mM PEG-pep1; 0.8 μM 5IAF-pep2; and 0.2 μM to 5 mM PEG-pep2. Polarization values were measured after 1 h of incubation at 37 °C. […]

Assay [3] has as its system adult Human Dermal Fibroblasts (HDFa). Briefly: Fibrin-in-fibrin HDFa migration assay (radial invasion). The format is cell-based. Conditions: 220 KIU of aprotinin in the media. On the procedure: This migration assay is based on a fibrin-in-fibrin assay: when a volume of HDFa-laden fibrinogen solution is injected into a gelling fibrinogen-based formulation, cells migrate from the clot into the surrounding matrix; the maximum distance covered in the unit time [Fig. 8(a) top and insert in the bottom graph] is a measure of the cell migration capacity. This model is particularly advantageous to assess the migration of cells separately from other phenomena; for example, if seeded homogeneously and/or moving as a coherent front, cells can rapidly remodel and contract the matrix,[41] and this can profoundly influence the characteristics of their migration too.[42]
Standard cell culture methods are reported in the supplementary material, Sec. 1.4SI. For the migration assays, adult Human Dermal Fibroblasts (HDFa) were gently suspended in 12.5 mg/ml fibrinogen (in HBS) at a final cell density of 3 × 10^7 cells/ml. […] The cell migration rate was measured by analyzing acquired images with ImageJ (v1.49p, http://rsb.info.nih.gov/ij): the migration area was approximated to a circle and the cell invasion was thus quantified as the variation of the initial diameter, as previously reported by Lutolf et al.[28] An average of nine time points per diameter were measured from day 0 to 8, returning the average migration rate (μm/day). […]

Consider GHRPGCG [Pep2], for which the Kd worked out at 335 ± 6 µM on fibrinogen [1] and 351 ± 10 µM at bovine fibrinogen.

Turning to GPRP [glycine-proline-arginine-proline], the “effect on fibrin clotting” value is “significantly reduce fibrin clotting” in the assay on fibrin clotting (1:20 fibrinogen/peptide molar ratio) and “completely prevent” in the assay with fibrin clotting (above 1:100 fibrinogen/peptide molar ratio). As to GPRPGCG [Pep1], the figures for the Kd at fibrinogen [1] and at bovine fibrinogen were 40 ± 1 µM and 44 ± 9 µM, respectively. Consider “PEG-pep1: 2 kDa PEG vinyl sulfone conjugated to Pep1; rest of material PEG-ME (GPRPGCG; Cys6 thiol joined by thioether (Michael addition) to 2 kDa PEG vinyl sulfone; free N-terminus (A-knob mimic); about 20 mol% of the material is PEG-mercaptoethanol; The GC)”, for which the Kd with fibrinogen [2] is 135 ± 8 µM; in the assay with bovine fibrinogen, 103 ± 5 µM. As for aprotinin, in assay [3], the “HDFa migration rate in presence vs absence of the inhibitor” value is listed as “virtually identical migration rates”.

In general, Kd refers to the concentration at which binding is half-saturated.
